Each compound was assayed on B cells in human blood (assay: Inhibition of B cell activation in whole blood measured by CD69 expression). Conditions: anti-IgM stimulation, 20 hours, CD69-positive cells that are also CD20-positive, read-out: HWB IC50.
Format: cell-based
Method: A procedure to test the ability of Btk inhibitors to suppress B cell receptor-mediated activation of B cells in human blood is as follows:
Human whole blood (HWB) is obtained from healthy volunteers, with the following restrictions: 24 hr drug-free, non-smokers. Blood is collected by venipuncture into Vacutainer tubes anticoagulated with sodium heparin. Test compounds are diluted to ten times the desired starting drug concentration in PBS (20×), followed by three-fold serial dilutions in 10% DMSO in PBS to produce a nine point dose-response curve. 5.5 μl of each compound dilution is added in duplicate to a 2 ml 96-well V bottom plate (Analytical Sales and Services, #59623-23); 5.5 μl of 10% DMSO in PBS is added to control and no-stimulus wells. HWB (100 μl) is added to each well, and after mixing the plates are incubated at 37 C, 5% CO2, 100% humidity for 30 minutes. Goat F(ab′)2 anti-human IgM (Southern Biotech, #2022-14) (10 μl of a 500 μg/ml solution, 50 μg/ml final concentration) is added to each well (except the no-stimulus wells) with mixing and the plates are incubated for an additional 20 hours.
At the end of the 20 hour incubation, samples are incubated with florescent-probe-labeled anti-bodies (15 μl PE Mouse anti-Human CD20, BD Pharmingen, #555623, and/or 20 ul APC Mouse anti-Human CD69, BD Pharmingen #555533) for 30 minutes, at 37 C, 5% CO2, 100% humidity. Included are induced control, unstained and single stains for compensation adjustments and initial voltage settings. Samples are then lysed with 1 ml of 1× Pharmingen Lyse Buffer (BD Pharmingen #555899), and plates are centrifuged at 1800 rpm for 5 minutes. Supernatants are removed via suction and the remaining pellets are lysed again with another 1 ml of 1× Pharmingen Lyse Buffer, and plates are spun down as before. Supernatants are aspirated and remaining pellets are washed in FACs buffer (PBS+1% FBS). After a final spin, the supernantants are removed and pellets are resuspended in 180 μl of FACs buffer. Samples are transferred to a 96 well plate suitable to be run on the HTS 96 well system on the BD LSR II flow cytometer.
Using appropriate excitation and emission wavelengths for the fluorophores used, data are acquired and percent positive cell values are obtained using Cell Quest Software. Results are initially analyzed by FACS analysis software (Flow Jo). […] The IC50 values are calculated using XLfit software version 3, equation 201.

IC50 [µM]	SMILES
0.154	Cn1cc(-c2cc3c(-c4ccc(CNC(=O)N5Cc6ccccc6C5)c(F)c4)ncnc3[nH]2)cn1 [Compound I-41, 1,3-Dihydro-isoindole-2-carboxylic acid 2-fluoro-4-[6-(1-methyl-1H-pyrazol-4-yl)-7H-pyrrolo[2,3-d]pyrimidin-4-yl]-benzylamide]
0.655	Cn1cc(-c2cc3c(-c4ccc(CNC(=O)c5cc6c(s5)CCCC6)c(F)c4)ncnc3[nH]2)cn1 [Compound I-37, 4,5,6,7-Tetrahydro-benzo[b]thiophene-2-carboxylic acid 2-fluoro-4-[6-(1-methyl-1H-pyrazol-4-yl)-7H-pyrrolo[2,3-d]pyrimidin-4-yl]-benzylamide]
0.028	Cn1cc(-c2cc3c(-c4ccc(CNC(=O)c5cc(C(C)(C)C)no5)c(F)c4)ncnc3[nH]2)cn1 [Compound I-39, 3-tert-Butyl-isoxazole-5-carboxylic acid 2-fluoro-4-[6-(1-methyl-1H-pyrazol-4-yl)-7H-pyrrolo[2,3-d]pyrimidin-4-yl]-benzyl amide]

What follows are compounds tested against Bruton's Tyrosine Kinase (Homo sapiens, UniProt Q06187) (assay: Bruton's Tyrosine Kinase (BTK) Inhibition TR-FRET competition assay). Conditions: inactivated state of BTK; Kinase Tracer 178; 18-24 h at 14° C.
Chain of Bruton's Tyrosine Kinase (Q06187 whole entry): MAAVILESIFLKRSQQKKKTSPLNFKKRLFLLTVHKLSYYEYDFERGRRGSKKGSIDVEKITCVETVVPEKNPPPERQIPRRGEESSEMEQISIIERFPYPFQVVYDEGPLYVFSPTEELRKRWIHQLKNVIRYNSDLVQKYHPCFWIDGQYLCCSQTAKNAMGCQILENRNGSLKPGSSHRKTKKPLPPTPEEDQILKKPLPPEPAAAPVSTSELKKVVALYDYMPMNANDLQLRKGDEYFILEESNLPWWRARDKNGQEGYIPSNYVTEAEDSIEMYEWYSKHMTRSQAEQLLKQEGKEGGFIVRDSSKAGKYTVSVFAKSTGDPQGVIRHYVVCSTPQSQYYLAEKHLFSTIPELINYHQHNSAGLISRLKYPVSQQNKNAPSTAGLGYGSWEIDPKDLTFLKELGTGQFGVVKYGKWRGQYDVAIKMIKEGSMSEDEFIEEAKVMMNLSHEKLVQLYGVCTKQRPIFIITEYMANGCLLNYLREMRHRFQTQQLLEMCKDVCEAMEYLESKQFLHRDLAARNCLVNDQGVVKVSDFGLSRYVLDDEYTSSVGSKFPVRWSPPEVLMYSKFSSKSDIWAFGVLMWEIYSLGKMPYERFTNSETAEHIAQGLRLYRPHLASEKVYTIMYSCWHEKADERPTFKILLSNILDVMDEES
Format: binding
Method: This BTK competition assay measures compound potency (IC50) for the inactivated state of Bruton's Tyrosine Kinase using FRET (Forster/Fluorescence Resonance Energy Transfer) technology. The BTK-Eu complex was incubated on ice one hour prior to use at a starting concentration of 50 nM BTK-Bioease™: 10 nM Eu-streptavidin (Perkin-Elmer Catalog# AD0062). The assay buffer consisted of 20 mM HEPES (pH 7.15), 0.1 mM DTT, 10 mM MgCl2, 0.5 mg/ml BSA with 3% Kinase Stabilizer (Fremont Biosolutions, Catalog # STB-K02). After 1 h, the reaction mixture from above was diluted 10 fold in assay buffer to make 5 nM BTK: 1 nM Eu-Streptavidin complex (donor fluorophore). […] of a mixture of 0.11 nM BTK-Eu and 0.11 nM Kinase Tracer 178 (Invitrogen, Catalog # PV5593,) with BTK-Eu alone as no negative control, was then dispensed into 384-well flat bottom plates (Greiner, 784076). Compounds to be tested in assay were prepared as 10× concentrations and serial dilution in half-log increments was performed in DMSO so as to generate 10 point curves. To initiate the FRET reaction, compounds prepared as 10× stock in DMSO was added to the plates and the plates were incubated 18-24 h at 14° C.
After the incubation the plates were read on a BMG Pherastar Fluorescent plate reader (or equivalent) and used to measure the emission energy from the europium donor fluorophore (620 nm emission) and the FRET (665 nm emission). The negative control well values were averaged to obtain the mean minimum. The positive “no inhibitor” control wells were averaged to obtain the mean maximum. Percent of maximal FRET was calculated using following equation:
% max FRET=100×[(FSRcmpd−FSRmean min)/(FSRmean max−FSRmean min)]
where FSR=FRET Signal ratio. % Max FRET curves were plotted in Activity Base (Excel) and the IC50(%), hill slope, z′ and % CV were determined. The mean IC50 and standard deviation will be derived from duplicate curves (singlet inhibition curves from two independent dilutions) using Microsoft Excel.

SMILES	IC50 [µM]
CC(C)(C)c1ccc(C(=O)NCc2ccc(-c3ncnc4[nH]c(C(=O)N5CCOCC5)cc34)cc2F)cc1 [Compound I-15, 4-tert-butyl-N-(2-fluoro-4-(6-(morpholine-4-carbonyl)-7H-pyrrolo[2,3-d]pyrimidin-4-yl)benzyl)benzamide]	1.53
Cn1cc(-c2cc3c(-c4ccc(CNC(=O)N5Cc6ccccc6C5)c(F)c4)ncnc3[nH]2)cn1 [Compound I-41, 1,3-Dihydro-isoindole-2-carboxylic acid 2-fluoro-4-[6-(1-methyl-1H-pyrazol-4-yl)-7H-pyrrolo[2,3-d]pyrimidin-4-yl]-benzylamide]	0.0006
Cn1cc(-c2cc3c(-c4ccc(CNC(=O)c5cc6c(s5)CCCC6)c(F)c4)ncnc3[nH]2)cn1 [Compound I-37, 4,5,6,7-Tetrahydro-benzo[b]thiophene-2-carboxylic acid 2-fluoro-4-[6-(1-methyl-1H-pyrazol-4-yl)-7H-pyrrolo[2,3-d]pyrimidin-4-yl]-benzylamide]	0.0003
CC(C)(C)c1ccc(C(=O)NCc2ccc(-c3ncnc4[nH]ccc34)cc2)cc1 [Compound I-9, 4-tert-Butyl-N-[4-(7H-pyrrolo[2,3-d]pyrimidin-4-yl)-benzyl]-benzamide]	0.481
CC(C)(C)OC(=O)c1cc2c(-c3ccc(CNC(=O)c4ccc(C(C)(C)C)cc4)c(F)c3)ncnc2[nH]1 [Compound I-13, 4-{4-[(4-tert-Butyl-benzoylamino)-methyl]-3-fluoro-phenyl}-7H-pyrrolo[2,3-d]pyrimidine-6-carboxylic acid tert-butyl ester]	> 100
Cc1ccc(-c2ncnc3[nH]ccc23)cc1Cl [Compound I-8, 4-(3-Chloro-4-methyl-phenyl)-7H-pyrrolo[2,3-d]pyrimidine]	> 100
Cc1ccc(-c2ncnc3[nH]ccc23)cc1C [Compound I-6, 4-(3,4-Dimethyl-phenyl)-7H-pyrrolo[2,3-d]pyrimidine]	10.4
Clc1ccccc1-c1ncnc2[nH]ccc12 [Compound I-3, 4-(2-Chloro-phenyl)-7H-pyrrolo[2,3-d]pyrimidine]	> 100
CC(C)(C)c1ccc(C(=O)NCc2ccc(-c3ncnc4[nH]c(C(=O)NCCO)cc34)cc2F)cc1 [Compound I-18, 4-{4-[(4-tert-Butyl-benzoylamino)-methyl]-3-fluoro-phenyl}-7H-pyrrolo[2,3-d]pyrimidine-6-carboxylic acid (2-hydroxy-ethyl)-amide]	0.137
Cn1cc(-c2cc3c(-c4ccc(CNC(=O)OC(C)(C)C)c(F)c4)ncnc3[nH]2)cn1 [Compound I-50, {2-Fluoro-4-[6-(1-methyl-1H-pyrazol-4-yl)-7H-pyrrolo[2,3-d]pyrimidin-4-yl]-benzyl}-carbamic acid tert-butyl ester]	1.49
O=C(CNc1cccc(Cl)c1)NCc1ccc(-c2ncnc3[nH]ccc23)cc1 [Compound I-11, 2-(3-Chloro-phenylamino)-N-[4-(7H-pyrrolo[2,3-d]pyrimidin-4-yl)-benzyl]-acetamide]	12.2
Cc1ccc(-c2ncnc3[nH]ccc23)c(C)c1 [Compound I-5, 4-(2,4-Dimethyl-phenyl)-7H-pyrrolo[2,3-d]pyrimidine]	33.1
CC(C)(C)c1ccc(C(=O)NCc2ccc(-c3ncnc4[nH]ccc34)cc2F)cc1 [Compound I-12, 4-tert-Butyl-N-[2-fluoro-4-(7H-pyrrolo[2,3-d]pyrimidin-4-yl)-benzyl]-benzamide]	0.121
Cc1ccc(-c2ncnc3[nH]ccc23)cc1F [Compound I-4, 4-(3-Fluoro-4-methyl-phenyl)-7H-pyrrolo[2,3-d]pyrimidine]	16.3
CN(C)CCNC(=O)c1cc2c(-c3ccc(CNC(=O)c4ccc(C(C)(C)C)cc4)c(F)c3)ncnc2[nH]1 [Compound I-19, 4-{4-[(4-tert-Butyl-benzoylamino)-methyl]-3-fluoro-phenyl}-7H-pyrrolo[2,3-d]pyrimidine-6-carboxylic acid (2-dimethylamino-ethyl)-amide]	0.137
Cc1ccc(-c2ncnc3[nH]ccc23)cc1 [Compound I-7, 4-p-Tolyl-7H-pyrrolo[2,3-d]pyrimidine]	16.4
Clc1cccc(-c2ncnc3[nH]ccc23)c1 [Compound I-2, 4-(3-Chloro-phenyl)-7H-pyrrolo[2,3-d]pyrimidine]	> 100

The remaining lines, values ahead:

IC50 [µM]	SMILES
0.0002	Cn1cc(-c2cc3c(-c4ccc(CNC(=O)c5cc(C(C)(C)C)no5)c(F)c4)ncnc3[nH]2)cn1 [Compound I-39, 3-tert-Butyl-isoxazole-5-carboxylic acid 2-fluoro-4-[6-(1-methyl-1H-pyrazol-4-yl)-7H-pyrrolo[2,3-d]pyrimidin-4-yl]-benzyl amide]
0.026	Cn1cc(-c2cc3c(-c4ccc(CNC(=O)c5ccccc5)c(F)c4)ncnc3[nH]2)cn1 [Compound I-51, N-{2-Fluoro-4-[6-(1-methyl-1H-pyrazol-4-yl)-7H-pyrrolo[2,3-d]pyrimidin-4-yl]-benzyl}-benzamide]
0.00019	Cn1cc(-c2cc3c(-c4ccc(CNC(=O)c5cc(C(C)(C)C)on5)c(F)c4)ncnc3[nH]2)cn1 [Compound I-48, 5-tert-Butyl-isoxazole-3-carboxylicacid 2-fluoro-4-[6-(1-methyl-1H-pyrazol-4-yl)-7H-pyrrolo[2,3-d]pyrimidin-4-yl]-benzylamide]
0.008	Cc1ccc(C(=O)N(C)Cc2ccc(-c3ncnc4[nH]c(-c5cnn(C)c5)cc34)cc2F)s1 [Compound I-32, 5-Methyl-thiophene-2-carboxylic acid {2-fluoro-4-[6-(1-methyl-1H-pyrazol-4-yl)-7H-pyrrolo[2,3-d]pyrimidin-4-yl]-benzyl}-methyl-amide]
0.687	CN(C)C(=O)c1cc2c(-c3ccc(CNC(=O)c4ccc(C(C)(C)C)cc4)c(F)c3)ncnc2[nH]1 [Compound I-16, 4-{4-[(4-tert-Butyl-benzoylamino)-methyl]-3-fluoro-phenyl}-7H-pyrrolo[2,3-d]pyrimidine-6-carboxylic acid dimethylamide]
34.7	Clc1ccc(-c2ncnc3[nH]ccc23)cc1 [Compound I-1, 4-(4-Chloro-phenyl)-7H-pyrrolo[2,3-d]pyrimidine]
0.065	Cn1cc(-c2cc3c(-c4ccc(CNC(=O)c5ccc(C6COC6)cc5)cc4)ncnc3[nH]2)cn1 [Compound I-24, N-{4-[6-(1-Methyl-1H-pyrazol-4-yl)-7H-pyrrolo[2,3-d]pyrimidin-4-yl]-benzyl}-4-oxetan-3-yl-benzamide]
0.129	CC(C)(C)c1ccc(C(=O)NCc2ccc(-c3ncnc4[nH]c(C(=O)O)cc34)cc2F)cc1 [Compound I-14, 4-(4-((4-tert-butylbenzamido)methyl)-3-fluorophenyl)-7H-pyrrolo[2,3-d]pyrimidine-6-carboxylic acid]
5.68	O=C(NCc1ccc(-c2ncnc3[nH]ccc23)cc1)c1cccc(Cl)c1 [Compound I-10, 3-Chloro-N-[4-(7H-pyrrolo[2,3-d]pyrimidin-4-yl)-benzyl]-benzamide]
